Assays:
[1] = target: T1, MMP-3 (Homo sapiens, UniProt P08254); format: biochemical; conditions: 6 µM P218 substrate, pH 6.5, 25 min at 37°C; calculated from IC50; read-out: MMP-3 Kf
T1 construct: made in house; host or cells: CHO cells
Excerpt: (§1) The P218 quenched fluorescence assay (Microfluorometric Profiling Assay) is a modification of that originally described by Knight, et al., FEBS Lett. 296, 263, 1992 for a related substance and a variety of matrix metalloproteinases (MMPs) in cuvettes. The assay was run with each invention compound and the three MMPs, Mmp-3, MMP-9 and MMP-2, analyzed in parallel, adapted as follows for a 96-well microtiter plate and a Hamilton AT® workstation. P218 Fluorogenic Substrate: P218 is a synthetic substrate containing a 4-acetyl-7-methoxycoumarin (MCA) group in the N-terminal position and a 3-[2, 4-dinitrophenyl]-L-2,3-diaminopropionyl (DPA) group internally. This is a modification of a peptide reported by Knight (1992) that was used as a substrate for matrix metalloproteinases. Once the P218 peptide is cleaved (putative clip site at the Ala-Leu bond), the fluorescence of the MCA group can be detected on a fluorometer with excitation at 328 nm and emission at 393 nm. P218 is currently being produced BACHEM exclusively for Bayer. P218 has the structure: H-MCA-Pro-Lys-Pro-Leu-Ala-Leu-DPA-Ala-Arg-NH2 (MW 1332.2)
Recombinant Human CHO Pro-MMP-3: Human CHO pro-stromelysin-257 (pro-MMP-3) was expressed and purified as described by Housley, et al., J. Biol. Chem. 268, 4481, 1993.
Activation of Pro-MMP-3 Pro-MMP-3 at 1.72 µM (100 µg/mL) in 5 mM Tris at pH 7.5, 5 mM CaCl2, 25 mM NaCl, and 0.005% Brij-35 (MMP-3 activation buffer) was activated by incubation with TPCK (N-tosyl-(L)-phenylalanine chloromethyl ketone) trypsin (1:100 w/w to pro-MMP-3) at 25 °C for 30 min. The reaction was stopped by addition of soybean trypsin inhibitor (SBTI: 5:1 w/w to trypsin concentration). This activation protocol results in the formation of 45 kDa active MMP-3, which still contains the C-terminal portion of the enzyme.
(§2) Hamiltion Microlab AT P!us: The MMP-Profiling Assay is performed robotically on a Hamilton MicroLab AT Plus®. The Hamilton is programmed to: (1) serially dilute up to 11 potential inhibitors automatically from a 2.5 mM stock in 100% DMSO; (2) distribute substrate followed by inhibitor into a 96 well Cytofluor plate; and (3) add a single enzyme to the plate with mixing to start the reaction. Subsequent plates for each additional enzyme are prepared automatically by beginning the program at the substrate addition point, remixing the diluted inhibitors and beginning the reaction by addition of enzyme. In this way, all MMP assays were done using the same inhibitor dilutions.
(§3) Millipore Cytofluor II. Following incubation, the plate was read on a Cytofluor II fluorometric place reader with excitation at 340 nm and emission at 395 nm with the gain set at 80.
(§4) Microfluorometric Reaction Buffer (MRB): Dilution of test compounds, enzymes, and P218 substrate for the microfluorometric assay were made in microfluorometric reaction buffer consisting of 50 mM 2-(N-morpholino)ethanesulfonic acid (MES) at pH 6.5 with 10 mM CaCl2, 150 mM NaCl, 0.005% Brij-35 and 1% DMSO.
(§5) MMP Microfluorometric Profiling Assay. The assay is done with a final substrate concentration of 6 µM P218 and approximately .5 to .8 nM MMP with variable drug concentrations. The Hamilton is programmed to serially dilute up to 11 compounds from a 2.5 mM stock (100% DMSO) to 10x the final compounds concentrations in the assay. Initially, the instrument delivers various amounts of microfluoromentric reaction buffer (MRB) to a 96 tube rack of 1 ml Marsh dilution tubes. The instrument then picks up 20 µl of inhibitor (2.5 mM) from the sample rack and mixes it with a buffer in row A of the Marsh rack, resulting in a 50 µM drug concentration. The inhibitors are then serially diluted to 10, 5, 1, .2, .05 and .01 µM. Position 1 on the sample rack contains only DMSO for the "enzyme-only" wells in the assay, which results in no inhibitor in column 1, rows A through H. The instrument then distributes 107 µl of P218 substrate (8.2 µM in MRB) to a single 96 well cytofluor microtiter plate. […]

[2] = target: T2, MMP-9 (Homo sapiens, UniProt P14780); format: biochemical; conditions: 6 µM P218 substrate, pH 6.5, 25 min at 37°C; calculated from IC50; read-out: MMP-9 Kf
T2 construct: made in house
T2 sequence (P14780 107-707 limits assumed): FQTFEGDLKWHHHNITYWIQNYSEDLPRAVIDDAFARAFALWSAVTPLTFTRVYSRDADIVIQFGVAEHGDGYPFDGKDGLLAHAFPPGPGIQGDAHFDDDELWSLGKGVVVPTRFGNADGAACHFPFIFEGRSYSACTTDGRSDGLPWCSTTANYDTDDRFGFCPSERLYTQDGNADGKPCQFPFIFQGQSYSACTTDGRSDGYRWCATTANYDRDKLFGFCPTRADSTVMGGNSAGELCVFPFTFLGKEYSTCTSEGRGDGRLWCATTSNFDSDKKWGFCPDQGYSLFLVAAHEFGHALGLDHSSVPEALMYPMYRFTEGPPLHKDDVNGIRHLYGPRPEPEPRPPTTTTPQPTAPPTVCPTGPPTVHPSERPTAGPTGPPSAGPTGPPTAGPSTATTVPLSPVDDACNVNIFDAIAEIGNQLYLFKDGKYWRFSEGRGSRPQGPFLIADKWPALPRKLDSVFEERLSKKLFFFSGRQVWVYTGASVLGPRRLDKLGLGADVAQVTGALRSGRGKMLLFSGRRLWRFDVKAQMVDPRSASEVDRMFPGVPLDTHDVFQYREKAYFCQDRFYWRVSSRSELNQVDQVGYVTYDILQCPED
Excerpt: as §1
Recombinant Human Pro-MMP-9: Human pro-gelatinase B (pro-MMP-9) derived from U937 cDNA as described by Wilhelm, et al. J. Biol. Chem. 264, 17213, 1989 was expressed as the full-length form using a baculovirus protein expression system. The pro-enzyme was purified using methods previously described by Hibbs, et al. J. Biol. Chem. 260, 2493, 1984.
Activation of Pro-MMP-9: […] 20 µg/mL in 50 mM Tris at pH 7.4, 10mM CaCl2, 150 mM NaCl, and 0.005% Brij-35 (MMP-9 activation buffer) was activated by incubation with 0.5 mM p-aminophenylmercuric acetate (APMA) for 3.5 h at 37 °C. The enzyme was dialyzed against the same buffer to remove the APMA.
as §2, §3, §4, §5

[3] = target: T3, MMP-2 (Homo sapiens, UniProt P08253); test: biochemical
T3 sequence (P08253 110-660): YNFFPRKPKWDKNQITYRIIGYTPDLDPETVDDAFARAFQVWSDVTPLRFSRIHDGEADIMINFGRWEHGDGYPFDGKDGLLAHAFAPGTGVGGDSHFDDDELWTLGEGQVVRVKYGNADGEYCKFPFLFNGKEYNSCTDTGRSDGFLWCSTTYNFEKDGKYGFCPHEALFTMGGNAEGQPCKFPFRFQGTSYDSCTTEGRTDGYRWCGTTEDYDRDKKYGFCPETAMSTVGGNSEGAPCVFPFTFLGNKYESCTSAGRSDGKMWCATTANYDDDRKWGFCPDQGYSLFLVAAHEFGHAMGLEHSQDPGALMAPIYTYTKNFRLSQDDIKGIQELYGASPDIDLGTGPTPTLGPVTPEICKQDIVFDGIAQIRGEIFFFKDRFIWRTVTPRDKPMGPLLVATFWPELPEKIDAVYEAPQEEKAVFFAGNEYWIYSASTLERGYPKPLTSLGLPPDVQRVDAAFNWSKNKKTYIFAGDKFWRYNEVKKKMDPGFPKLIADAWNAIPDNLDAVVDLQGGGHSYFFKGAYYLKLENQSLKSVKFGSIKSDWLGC

T1 sequence (P08254 100-477): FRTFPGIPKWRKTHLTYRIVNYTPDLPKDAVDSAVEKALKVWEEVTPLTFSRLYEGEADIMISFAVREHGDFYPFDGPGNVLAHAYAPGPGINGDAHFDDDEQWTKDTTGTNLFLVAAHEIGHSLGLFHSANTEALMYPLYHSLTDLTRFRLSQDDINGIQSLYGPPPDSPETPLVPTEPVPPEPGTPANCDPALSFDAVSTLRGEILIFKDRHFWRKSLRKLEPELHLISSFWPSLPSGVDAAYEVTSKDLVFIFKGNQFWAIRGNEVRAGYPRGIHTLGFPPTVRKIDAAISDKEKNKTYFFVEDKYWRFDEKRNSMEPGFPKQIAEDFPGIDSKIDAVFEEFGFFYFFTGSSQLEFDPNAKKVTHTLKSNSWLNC

O=C(CC(CCc1ccccc1C(=O)NCCc1ccccc1)C(=O)O)c1ccc(-c2ccc(Cl)cc2)cc1 (stereo not drawn) [Compound I, 4'-chloro-γ-oxo-α-[2-[2-[[(2-phenylethyl)amino]carbonyl]phenyl]ethyl]-[1,1'-biphenyl]-4-butanoic acid]
Ki [1]: 127 nM | Ki [2]: 173 nM | Ki [3]: 41.1 nM

O=C(CC(CCc1cccc(C(=O)N2CCOCC2)c1)C(=O)O)c1ccc(-c2ccc(Cl)cc2)cc1 (stereo not drawn) [Compound X, 4'-chloro-α-[2-[3-(4-morpholinylcarbonyl)phenyl]ethyl]-γ-oxo-[1,1'-biphenyl]-4-butanoic acid]
Ki [1]: 73.8 nM | Ki [2]: 251 nM | Ki [3]: 26.1 nM

O=C(CC(CCc1ccc(C(=O)NCCc2ccccc2)cc1)C(=O)O)c1ccc(-c2ccc(Cl)cc2)cc1 (stereo not drawn) [Compound XX, 4'-chloro-γ-oxo-α-[2-[4-[[(2-phenylethyl)amino]carbonyl]phenyl]ethyl]-[1,1'-biphenyl]-4-butanoic acid]
Ki [2]: 2000 nM | Ki [3]: 446 nM

O=C(CC(CCc1ccc(C(=O)N2CCCCC2)cc1)C(=O)O)c1ccc(-c2ccc(Cl)cc2)cc1 (stereo not drawn) [Compound XXI, 4'-chloro-γ-oxo-α-[2-[4-(1-piperidinylcarbonyl)phenyl]ethyl]-[1,1'-Biphenyl]-4-butanoic acid]
Ki [1]: 242 nM | Ki [2]: 806 nM | Ki [3]: 84.1 nM

O=C(O)CNC(=O)c1ccccc1CCC(CC(=O)c1ccc(-c2ccc(Cl)cc2)cc1)C(=O)O (stereo not drawn) [Compound XXIII, α-[2-[2-[[(2-carboxymethyl)amino]carbonyl]phenyl]ethyl]-4'-chloro-γ-oxo-[1,1'-biphenyl]-4-butanoic acid]
Ki [1]: 259 nM | Ki [2]: 1590 nM | Ki [3]: 96 nM

O=C(O)CCNC(=O)c1ccccc1CCC(CC(=O)c1ccc(-c2ccc(Cl)cc2)cc1)C(=O)O (centres unmarked) [Compound XXII]
Ki [1]: 166 nM | Ki [2]: 1130 nM | Ki [3]: 63.5 nM

O=C(O)CNC(=O)c1ccc(CCC(CC(=O)c2ccc(-c3ccc(Cl)cc3)cc2)C(=O)O)cc1 (stereo not drawn) [Compound XXIV, α-[2-[4[[(carboxymethyl)amino]carbonyl]phenyl]ethyl]-4'-chloro-γ-oxo-[1,1'-biphenyl]-4-butanoic acid]
Ki [1]: 293 nM | Ki [2]: 915 nM | Ki [3]: 82.4 nM

CCCCCOc1ccc(-c2ccc(C(=O)CC(CCc3cccc(C(=O)N4CCCCC4)c3)C(=O)O)cc2)cc1 (stereo not drawn) [Compound XXXI, γ-oxo-4'-(pentyloxy)-α-[2-[3-(1-piperidinylcarbonyl)phenyl]ethyl]-[1,1'-biphenyl]-4-butanoic acid]
Ki [1]: 35.8 nM | Ki [2]: 373 nM | Ki [3]: 17 nM

O=C(CC(CCc1cccc(C(=O)N2CCCCC2)c1)C(=O)O)c1ccc(-c2ccc(OCc3ccccc3)cc2)cc1 (centres unmarked) [Compound XXX]
Ki [1]: 12.5 nM | Ki [2]: 102 nM | Ki [3]: 4.44 nM

O=C(CC(CCc1ccccc1C(=O)NCc1ccccc1)C(=O)O)c1ccc(-c2ccc(Cl)cc2)cc1 (stereo not drawn) [III, 4'-chloro-γ-oxo-α-[2-[2-[[(phenylmethyl)amino]carbonyl]phenyl]ethyl]-[1,1'-biphenyl]-4-butanoic acid]
Ki [1]: 174 nM | Ki [2]: 475 nM | Ki [3]: 60.3 nM

O=C(CC(CCc1ccccc1C(=O)NCCCc1ccccc1)C(=O)O)c1ccc(-c2ccc(Cl)cc2)cc1 (stereo not drawn) [IV, 4'-chloro-γ-oxo-α-[2-[2-[[(3-phenylpropyl)amino]carbonyl]phenyl]ethyl]-[1,1'-biphenyl]-4-butanoic acid]
Ki [1]: 175 nM | Ki [2]: 246 nM | Ki [3]: 68.7 nM

CCOC(=O)CN(C)C(=O)c1ccccc1CCC(CC(=O)c1ccc(-c2ccc(Cl)cc2)cc1)C(=O)O (stereo not drawn) [IX, 4'-chloro-α-[2-[2-[[(2-ethoxy-2-oxoethyl)methylamino]carbonyl]phenyl]ethyl]-γ-oxo-[1,1'-biphenyl]-4-butanoic acid]
Ki [1]: 43.6 nM | Ki [2]: 254 nM | Ki [3]: 17.5 nM

O=C(CC(CCc1ccccc1C(=O)N1CCCCC1)C(=O)O)c1ccc(-c2ccc(Cl)cc2)cc1 (stereo not drawn) [V, 4'-chloro-γ-oxo-α-[2-[2-(1-piperidinylcarbonyl)phenyl]ethyl]-[1,1'-biphenyl]-4-butanoic acid]
Ki [1]: 54.7 nM | Ki [2]: 146 nM | Ki [3]: 13.8 nM

CC(C)CCNC(=O)c1ccccc1CCC(CC(=O)c1ccc(-c2ccc(Cl)cc2)cc1)C(=O)O (stereo not drawn) [VI, 4'-chloro-α-[2-[2-[[(3-methylbutyl)amino]carbonyl]phenyl]ethyl]-γ-oxo-[1,1'-biphenyl]-4-butanoic acid]
Ki [1]: 214 nM | Ki [2]: 431 nM | Ki [3]: 58.1 nM

CCOC(=O)CNC(=O)c1ccccc1CCC(CC(=O)c1ccc(-c2ccc(Cl)cc2)cc1)C(=O)O (stereo not drawn) [VIII, 4'-chloro-α-[2-[2-[[(2-ethoxy-2-oxo-ethyl)amino]carbonyl]phenyl]ethyl]-γ-oxo-[1,1'-biphenyl]-4-butanoic acid]
Ki [1]: 165 nM | Ki [2]: 806 nM | Ki [3]: 56.8 nM

O=C(CC(CCc1cccc(C(=O)NCCc2ccccc2)c1)C(=O)O)c1ccc(-c2ccc(Cl)cc2)cc1 (stereo not drawn) [XII, 4'-chloro-γ-oxo-α-[2-[3-[[(2-phenylethyl)amino]carbonyl]phenyl]ethyl]-[1,1'-biphenyl]-4-butanoic acid]
Ki [1]: 450 nM | Ki [2]: 2650 nM | Ki [3]: 125 nM

O=C(CC(CCc1cccc(C(=O)NCCCc2ccccc2)c1)C(=O)O)c1ccc(-c2ccc(Cl)cc2)cc1 (stereo not drawn) [XIII, 4'-chloro-γ-oxo-α-[2-[3[[(3-phenylpropyl)amino]carbonyl]phenyl]ethyl]-[1,1'-biphenyl]-4-butanoic acid]
Ki [1]: 236 nM | Ki [2]: 552 nM | Ki [3]: 157 nM

— patent EP0907632B1, “INHIBITION OF MATRIX METALLOPROTEASES BY SUBSTITUTED PHENETHYL COMPOUNDS” (Bayer Corporation, priority 1996, dated 1997)
